From PubChem BioAssay AID328 (DTP/NCI, 2004) come the findings set out here.

The test system of this test is BDF1 mice, P388 leukemia ip, median survival T/C. The test is described as follows: NCI In Vivo Anticancer Drug Screen. Data for tumor model P388 Leukemia (intraperitoneal) in B6D2F1 (BDF1) mice. As to conditions: endpoint: median survival time, higher = longer survival. In a few lines: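 T/C = treated-group survival ÷ vehicle-control survival; tumour transplanted into mice before dosing.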

Setting [1] is: dose: 12.5 mg/kg/injection, schedule: Q01DX009 (ip), vehicle: saline.
[2] abbreviates: dose: 25.0 mg/kg/injection, schedule: Q01DX009 (ip), vehicle: saline.
[3] abbreviates: dose: 12.5 mg/kg/injection, schedule: Q01DX009 (ip), vehicle: saline with Tween-80.
The mark [4] stands for this setting: dose: 25.0 mg/kg/injection, schedule: Q01DX009 (ip), vehicle: saline with Tween-80.
Where [5] appears, read: dose: 200.0 mg/kg/injection, schedule: Q01DX009 (ip), vehicle: saline with Tween-80.
Setting [6] is: dose: 100.0 mg/kg/injection, schedule: Q04DX003 (ip), vehicle: saline.
Setting [7] is: dose: 100.0 mg/kg/injection, schedule: Q04DX003 (ip), vehicle: saline with Tween-80.
[8] abbreviates: dose: 200.0 mg/kg/injection, schedule: Q04DX003 (ip), vehicle: saline with Tween-80.
Where [9] appears, read: dose: 400.0 mg/kg/injection, schedule: Q04DX003 (ip), vehicle: saline with Tween-80.

The structures appear in SMILES notation. Several values for one entry are separate records, joined by “and”; a condition that tells them apart may be missing. Identical values can stand only once. Inconclusive results and toxic doses are left out.

Take `CN(C)CCC(=O)C(=Cc1ccc(Cl)c(Cl)c1)C(=O)CCN(C)C`: the T/C reads like this: (dose: 50.0 mg/kg/injection, schedule: Q01DX005 (ip), vehicle: saline) 109 % of control; (dose: 100.0 mg/kg/injection, schedule: Q01DX005 (ip), vehicle: saline) 114 % of control.
`c1cc[c]([Sb]([c]2ccccc2)[c]2ccccc2)cc1`: where the note is “dose: 20.0 mg/kg/injection, schedule: Q04DX003 (ip), vehicle: saline with Tween-80”, the T/C is 120 % of control.
As to `C1CCc2nnnn2CC1`, the T/C is, setting by setting: (dose: 2.34 mg/kg/injection, schedule: Q04DX003 (ip), vehicle: saline) 91 % of control; (dose: 4.68 mg/kg/injection, schedule: Q04DX003 (ip), vehicle: saline) 91 % of control; (dose: 9.37 mg/kg/injection, schedule: Q04DX003 (ip), vehicle: saline) 91 % of control; under setting [1], 118 % of control; (dose: 18.75 mg/kg/injection, schedule: Q04DX003 (ip), vehicle: saline) 100 % of control; under setting [2], 118 % of control.
Turning to `CSc1ncc2cnccn12`, the T/C by setting is: (dose: 12.5 mg/kg/injection, schedule: Q01DX009 (ip), vehicle: water) 105 % of control; (dose: 25.0 mg/kg/injection, schedule: Q01DX009 (ip), vehicle: water) 96 % of control; (dose: 25.0 mg/kg/injection, schedule: Q04DX003 (ip), vehicle: water) 100 % of control; (dose: 50.0 mg/kg/injection, schedule: Q01DX009 (ip), vehicle: water) 100 % of control; (dose: 50.0 mg/kg/injection, schedule: Q04DX003 (ip), vehicle: water) 104 % of control; (dose: 100.0 mg/kg/injection, schedule: Q04DX003 (ip), vehicle: water) 95 % of control.
Turning to `O=S(=O)(F)c1ccc(N=C=S)cc1`, the T/C (dose: 6.25 mg/kg/injection, schedule: Q01DX009 (ip), vehicle: saline with Tween-80) is 120 % of control; the T/C under setting [3] was 116 % of control; the T/C under setting [4] was 112 % of control.
With `CCN(CC)CCCNc1ncnc2onc(-c3ccccc3)c12`, the T/C reads like this: (dose: 50.0 mg/kg/injection, schedule: Q01DX009 (ip), vehicle: other) 107 % of control; (dose: 100.0 mg/kg/injection, schedule: Q01DX009 (ip), vehicle: other) 105 % of control; (dose: 200.0 mg/kg/injection, schedule: Q01DX009 (ip), vehicle: other) 96 % of control.
Take `CC(=O)OCc1c(O)c2c(c(O)c1COC(C)=O)C(=O)C=CC2=O`: the T/C was 107 % of control (dose: 1.56 mg/kg/injection, schedule: Q01DX009 (ip), vehicle: saline); 96 % of control (dose: 3.12 mg/kg/injection, schedule: Q01DX009 (ip), vehicle: saline); 105 % of control (dose: 6.25 mg/kg/injection, schedule: Q01DX009 (ip), vehicle: saline); 87 % of control under setting [1]; 94 % of control under setting [2].
Take `O=C1C=C(c2ccccc2)C(O)(c2ccccc2)C1` (stereo unspecified): the T/C (dose: 100.0 mg/kg/injection, schedule: Q01DX009 (ip), vehicle: saline with Tween-80) was 102 % of control and the T/C under setting [5] was 88 % of control.
Consider `CNC(C)COc1ccccc1` (stereo unspecified), for which the T/C is, setting by setting: (dose: 25.0 mg/kg/injection, schedule: Q04DX003 (ip), vehicle: saline) 104 % of control; (dose: 50.0 mg/kg/injection, schedule: Q04DX003 (ip), vehicle: saline) 100 % of control; under setting [6], 90 % of control.
On to `[N-]=[N+]=C1C(=O)NC(=O)N2C3CC(O)C(COC12)O3` (stereo unspecified), for which the T/C is 154 % of control (dose: 132.0 mg/kg/injection, schedule: Q01DX009 (ip), vehicle: saline with Tween-80); 159 % of control and 170 % of control under setting [5]; 170 % of control and 177 % of control (dose: 300.0 mg/kg/injection, schedule: Q01DX009 (ip), vehicle: saline with Tween-80).
Turning to `CCCCCCCC[N+](C)(CCCCCCCC)CCCCCCCC`, the T/C is 108 % of control (dose: 0.12 mg/kg/injection, schedule: Q01DX009 (ip), vehicle: saline); 116 % of control (dose: 0.18 mg/kg/injection, schedule: Q01DX009 (ip), vehicle: saline); 166 % of control (dose: 0.28 mg/kg/injection, schedule: Q01DX009 (ip), vehicle: saline); 95 % of control and 100 % of control (dose: 0.42 mg/kg/injection, schedule: Q01DX009 (ip), vehicle: saline); 155 % of control (dose: 0.43 mg/kg/injection, schedule: Q01DX009 (ip), vehicle: saline); 108 % of control and 121 % of control (dose: 0.96 mg/kg/injection, schedule: Q01DX009 (ip), vehicle: saline). The T/C is, setting by setting: (dose: 1.0 mg/kg/injection, schedule: Q01DX009 (ip), vehicle: saline) 100 % of control; (dose: 1.3 mg/kg/injection, schedule: Q01DX009 (ip), vehicle: saline) 112 % of control; (dose: 2.0 mg/kg/injection, schedule: Q01DX009 (ip), vehicle: saline) 100 % of control; (dose: 2.1 mg/kg/injection, schedule: Q01DX009 (ip), vehicle: saline) 120 % of control; (dose: 2.32 mg/kg/injection, schedule: Q04DX003 (ip), vehicle: saline) 104 % of control; (dose: 3.1 mg/kg/injection, schedule: Q01DX009 (ip), vehicle: saline) 95 % of control. The T/C by setting is: (dose: 4.65 mg/kg/injection, schedule: Q04DX003 (ip), vehicle: saline) 95 % of control; (dose: 6.5 mg/kg/injection, schedule: Q01DX001 (ip), vehicle: saline) 100 % of control; (dose: 13.0 mg/kg/injection, schedule: Q01DX001 (ip), vehicle: saline) 100 % of control.
Turning to `C=C(C)C1CC2(C)C(C)CC(O)CC2C(OC(=O)C=C(C)C)C1O` (stereo unspecified), the T/C is, setting by setting: (dose: 0.75 mg/kg/injection, schedule: Q01DX009 (ip), vehicle: saline) 94 % of control; (dose: 1.5 mg/kg/injection, schedule: Q01DX009 (ip), vehicle: saline) 94 % of control; (dose: 3.0 mg/kg/injection, schedule: Q01DX009 (ip), vehicle: saline) 103 % of control; (dose: 6.0 mg/kg/injection, schedule: Q01DX009 (ip), vehicle: saline) 89 % of control.
On to `COc1ccc2c(c1)C(C)(C)Oc1cc3oc(C(=O)O)cc(=O)c3cc1-2`, for which the T/C is, setting by setting: under setting [7], 104 % of control; under setting [8], 101 % of control; under setting [9], 104 % of control.
Regarding `O=C(O)c1cc(B(O)O)[nH]n1`, the T/C is 104 % of control (dose: 50.0 mg/kg/injection, schedule: Q01DX001 (ip), vehicle: saline sonified); 100 % of control (dose: 100.0 mg/kg/injection, schedule: Q01DX001 (ip), vehicle: saline sonified); 100 % of control (dose: 200.0 mg/kg/injection, schedule: Q01DX001 (ip), vehicle: saline sonified).
As for `Cc1cc(C)[n+](C)c2cc3ccccc3cc12`, the T/C (dose: 50.0 mg/kg/injection, schedule: Q01DX005 (ip), vehicle: saline with Tween-80) was 155 % of control.
Consider `O=S(=O)(O)C1(O)CCCCC1`, for which the T/C is 105 % of control (dose: 100.0 mg/kg/injection, schedule: Q01DX009 (ip), vehicle: saline); 95 % of control under setting [7]; 109 % of control under setting [6]; 100 % of control (dose: 200.0 mg/kg/injection, schedule: Q01DX009 (ip), vehicle: saline); 104 % of control under setting [8]; 104 % of control (dose: 200.0 mg/kg/injection, schedule: Q04DX003 (ip), vehicle: saline). In addition, the T/C is 105 % of control (dose: 400.0 mg/kg/injection, schedule: Q01DX009 (ip), vehicle: saline); 100 % of control under setting [9]; 100 % of control (dose: 400.0 mg/kg/injection, schedule: Q04DX003 (ip), vehicle: saline).
On to `COc1ccc(CN2COc3c(cc(C)c4cccnc34)C2)cc1`, for which the T/C by setting is: under setting [3], 90 % of control; under setting [4], 94 % of control; (dose: 50.0 mg/kg/injection, schedule: Q01DX009 (ip), vehicle: saline with Tween-80) 92 % of control.
As to `COc1cc(NC(=O)C(C)NC(=O)C(N)CCCCN)cc2ccccc12` (stereo unspecified), the T/C is, setting by setting: (dose: 50.0 mg/kg/injection, schedule: Q01DX005 (ip), vehicle: suspension in saline) 95 % of control; (dose: 100.0 mg/kg/injection, schedule: Q01DX005 (ip), vehicle: suspension in saline) 90 % of control.
For the compound `CC(=O)O.CC(=O)O.[NH-]C(CCC(N)=O)C(=O)O.[NH-]C(CCC(N)=O)C(=O)O.[Ni+2]` (stereo unspecified), the T/C under setting [1] was 104 % of control and the T/C under setting [2] is 93 % of control.
